Target: BacD (Bacillus subtilis, UniProt P39641)
Experiment: LC/MS and 1H-NMR of dipeptide product
Type: biochemical
Conditions: 1 mM substrate, 3 mM L-Ala, 3 mM ATP, 5 mM MgCl2, 20 uM BacD, 50 mM potassium phosphate pH 8.0, room temperature

BacD, sequence (P39641 whole entry): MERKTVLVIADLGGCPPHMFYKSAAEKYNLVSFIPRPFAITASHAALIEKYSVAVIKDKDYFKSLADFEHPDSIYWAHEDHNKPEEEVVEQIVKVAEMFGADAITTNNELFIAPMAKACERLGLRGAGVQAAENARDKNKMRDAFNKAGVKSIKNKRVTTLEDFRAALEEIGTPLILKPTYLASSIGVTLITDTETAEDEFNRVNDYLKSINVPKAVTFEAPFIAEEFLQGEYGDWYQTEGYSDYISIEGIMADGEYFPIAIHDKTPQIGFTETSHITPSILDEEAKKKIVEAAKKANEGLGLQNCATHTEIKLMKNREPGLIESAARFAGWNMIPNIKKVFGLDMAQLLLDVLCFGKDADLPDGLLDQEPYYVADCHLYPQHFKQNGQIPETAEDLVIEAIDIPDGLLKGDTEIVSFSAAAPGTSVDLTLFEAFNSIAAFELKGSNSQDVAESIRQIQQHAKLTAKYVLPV

## N[C@@H](C[C@H]1C=C[C@H](O)CC1)C(=O)O [4S-H4Tyr]
  LC/MS and 1H-NMR of dipeptide product: BacD would ligate L-Ala onto the N-terminus of both the 4S and 4R diastereomers

— article PMC3568925 (Biochemistry, 2013)
